Literature values as cited in patent US20030054382A1, “Infection of eukaryotic cells with viruses in vitro” (priority 1999, published 2003).

Test system: HCV
Conditions: pretreatment of the cells to be infected

For dextran sulfate, the “attachment of HCV to the cell surface and infection of the cells” value is given as “inhibits the attachment of HCV to the cell surface and prevents any infection of the cells”.
